According to patent US20260248819A1, “MULTI-COMPONENT PHARMACEUTICAL COMPOSITIONS AND KITS CONTAINING NITRIC OXIDE RELEASING COMPOUNDS AND METHODS OF USING SAME” (priority 2022, published 2026):

Legend:
M. chimaera N0124 = assay: Checkerboard assay, MD3 combined with a second antibiotic (NTM); type: cell-based, Mycobacterium chimaera; conditions: strain N0124, aerobic
Experimental: (§1) The checkerboard method was performed as follows. MD3 and the second antibiotic were tested at four times (4×) their minimum inhibitory concentration (MIC) alone (see Table 3). Stock solutions of MD3 and the secondary antibiotics were prepared at 4× the final concentration (i.e., 16× the MIC; called the 4× stocks).
(§2) Bacterial cultures were prepared from frozen glycerol stocks stored at −80° C. by streaking on agar plates (see Table 4). Several well-isolated colonies were suspended in IX PBS, then diluted to 1×10^6 CFU/ml in liquid media. The cultures were diluted to 5×10^5 CFU/ml, when added to the antibiotic combinations in the checkerboard assay plate. Because colonies from strains N0010, N0046, and N0124 are difficult to suspend homogenously, they were first sub-cultured in 7H9 liquid media containing Middlebrook ADC supplement and 0.05% Tween-80, then incubated at 37° C. shaking for 3 days. This subculture was used to prepare the 1×10^6 CFU/ml culture.
(§3) To prepare the checkerboard assay plates, phosphate buffered saline (PBS) was added to wells BI through H8 of a 96-well plate. […]
(§4) The FICI was calculated for each well along the growth/no-growth border of the checkerboard assay plate. […]

[1] = tested on: M. abscessus strain N0046; assay: as above; type: cell-based, Mycobacterium abscessus subsp. bolletii; conditions: aerobic
Experimental: as §1, §2, §3, §4

[2] = tested on: M. abscessus strain N0010; assay: as above; type: cell-based, Mycobacterium abscessus; conditions: aerobic
Experimental: as §1, §2, §3, §4

M. massiliense N0130 = assay: as above; type: cell-based, Mycobacterium massiliense; conditions: strain N0130, aerobic
Experimental: as §1, §2
(§5) To prepare the checkerboard assay plates, phosphate buffered saline (PBS) was added to wells BI through H8 of a 96-well plate. Next, 200 μl of the 4× second antibiotic stock was added to the empty wells in A1 through A8 of a 96-well plate, then serially diluted 1:1 down the plate using a multichannel pipette, stopping at row G. The final 100 μl from row G was discarded. […] At this step, all wells contain 4× the target concentration of the second antibiotic. Next, 100 μl of the 4× MD3 stock solution was added to wells A1 through H1 and serially diluted 1:1 across the plate to column 7 using a multichannel pipette. The final 100 μl in […] was discarded. […] After this step, all wells contain 2× the target concentrations for both MD3 and the second antibiotic. The wells in column 9 contain media alone, serving as media controls. The wells in column 10 contain media and bacteria, serving as growth controls. Finally, 100 μl of 5×10^5 CFU/ml bacterial culture was added to each well.
The FICI was calculated for each well along the growth/no-growth border of the checkerboard assay plate. If the FICI of any well was greater than 4, antagonism was reported; otherwise, the lowest FICI value was reported. FICI values of ≤0.5 are considered synergistic, values of 0.51 to 1 are additive, and values of greater than 1 to 4 are indifferent. The rationale for this method of analysis is that, if any ratio of MD3:antibiotic is synergistic, then that combination has the potential for synergy, even if other ratios are not synergistic. […] If an experiment was repeated twice and the same classification observed (e.g., synergy observed in both replicates), then the average FICI was reported for that drug combination. […]

[3] = tested on: P. aeruginosa strain PAK (N0049); assay: Checkerboard assay, MD3 combined with a second antibiotic; type: cell-based, Pseudomonas aeruginosa; conditions: for Lowest FICI, rep 1 / Lowest FICI, rep 2 / Lowest FICI, rep 3: antibiotic combined with MD3
Experimental: To quantify the combined effects of MD3 and a secondary antibiotic, a checkerboard assay was used, which is a two-dimensional, two-agent serial dilution that quantifies the effect of each drug alone and in combination. In patients with underlying pulmonary disease such as bronchiectasis, significant mucus in the lung results in bacterial infections that are primarily microaerobic (little oxygen) or anaerobic (no oxygen). Therefore, combinations of MD3 and six secondary antibiotics were evaluated under both aerobic and anaerobic conditions for a representative organism, Pseudomonas aeruginosa.
as §1
MD3 and secondary antibiotics were tested at 4× their minimum inhibitory concentration (MIC) alone. […] MD3 and antibiotics were tested across a 7-point range of 2-fold concentration, as detailed in Table 3.
as §2, §5
For experiments in which P. aeruginosa was grown under anaerobic conditions, 90 mM KNO3 was added to the CAMHB media, and the checkerboard assay plates were incubated in an anaerobic box containing anaerobic sachets.
The FICI was calculated for each well along the growth/no-growth border of the checkerboard assay plate. If the FICI of any well was greater than 4, antagonism was reported; otherwise, the lowest FICI value was reported. FICI values of ≤0.5 are considered synergistic, values of 0.51 to 1 are additive, and values of greater than 1 to 4 are indifferent. The rationale for this method of analysis is that, if any ratio of MD3:antibiotic is synergistic, then that combination has the potential for synergy, even if other ratios are not synergistic.

[4] = tested on: Candida auris (Strain N0220); assay: Checkerboard assay, MD3 combined with a secondary antifungal; type: cell-based; conditions: for Interaction (at 24 hours) / Lowest FICI (at 24 hours) / Interaction (at 48 hours) / Lowest FICI (at 48 hours): antifungal combined with MD3
Source text: (§6) To quantify the combined effects of MD3 and a secondary antifungal, a checkerboard assay was used as described above in Example 1. The antibiotics tested in this study included voriconazole, a triazole antifungal that inhibits the growth of the fungi causing the infection; itraconazole, an azole antifungal that inhibits the growth of fungi; and amphotericin B, a polyene antifungal that binds to ergosterol in fungal cell membranes, developing holes in the membrane and allowing cell components to leak out, causing cell death.
(§7) The fungal species used in this study included Aspergillus fumigatus (strain N0219) and Candida auris (Strain N0220). The checkerboard method was performed as described above in Example 1. The effects of the antifungal combinations were classified according to the fractional inhibitory concentration index (FICI) as described above in Example 1 at time points of 24 hours and 48 hours.

S. aureus strain N0040 = assay: Checkerboard assay, MD3 combined with a second antibiotic; type: cell-based, Staphylococcus aureus; conditions: aerobic
Experimental: as §1, §2, §5
The FICI was calculated for each well along the growth/no-growth border of the checkerboard assay plate. If the FICI of any well was greater than 4, antagonism was reported; otherwise, the lowest FICI value was reported. FICI values of ≤0.5 are considered synergistic, values of 0.51 to 1 are additive, and values of greater than 1 to 4 are indifferent. The rationale for this method of analysis is that, if any ratio of MD3:antibiotic is synergistic, then that combination has the potential for synergy, even if other ratios are not synergistic. […] If an experiment was repeated twice and the same classification observed (e.g., synergy observed in both replicates), then the average FICI was reported for that drug combination. If the results for two duplicates are discordant in their classification, a third experiment must be conducted and the average FICI from the triplicate experiments was used for final classification.

[5] = tested on: Aspergillus fumigatus (strain N0219); assay: Checkerboard assay, MD3 combined with a secondary antifungal; type: cell-based
Source text: as §6, §7

P. aeruginosa biofilms = assay: Eradication of P. aeruginosa biofilms (MBEC assay); type: cell-based, Pseudomonas aeruginosa; conditions: aerobic and anaerobic biofilms; treated 18-24 hours
Experimental: The minimum biofilm eradication concentration (MBEC) of MD3 was determined for P. aeruginosa biofilms grown under aerobic and anaerobic conditions. The MBEC is defined as a 3-log reduction in biofilm-associated CFUs. Biofilms were generated using the MBEC Assay™ growth device (Innovotech; Edmonton, Alberta, Canada) in cation-adjusted Mueller-Hinton broth (CAMHB) at 37° C. for 24 hours and treated with MD3 or tobramycin for an additional 18-24 hours. Remaining biofilms were disrupted by sonication and plated to determine the surviving CFU/mL following a single treatment.

planktonic P. aeruginosa = assay: Minimum inhibitory concentration (MIC) of an agent alone; type: cell-based; conditions: Pseudomonas aeruginosa, strain PAK grown aerobically
Experimental: MD3 and secondary antibiotics were tested at 4× their minimum inhibitory concentration (MIC) alone. For example, the MICMD3 against P. aeruginosa strain PAK grown aerobically is 31.25 μg/ml, and the MICTOB is 3.125 μg/ml; thus, the highest concentrations tested in the checkerboard assay were 125 µg/ml MD3 and 12.5 μg/ml TOB. MD3 and antibiotics were tested across a 7-point range of 2-fold concentration, as detailed in Table 3.
as §5, with “Finally, 100 μl of 5×10^5 CFU/ml bacterial culture was added to each well.” left out

[6] = 24 hours, antifungal combined with MD3
[7] = 48 hours, antifungal combined with MD3

## NCC[C@H](O)C(=O)N[C@@H]1C[C@H](N)[C@@H](O[C@H]2O[C@H](CN)[C@@H](O)[C@H](O)[C@H]2O)[C@H](O)[C@H]1O[C@H]1O[C@H](CO)[C@@H](O)[C@H](N)[C@H]1O [AMK, Amikacin]
M. chimaera N0124
  Lowest FICI, rep 1: 0.75
[1]
  Lowest FICI, rep 1: 0.56
[2]
  Lowest FICI, rep 1: 0.56
M. massiliense N0130
  Lowest FICI, rep 1: 0.56
  Lowest FICI, rep 2: 0.56

## C[C@H]1[C@H](NC(=O)/C(=N\OC(C)(C)C(=O)O)c2csc(N)n2)C(=O)N1S(=O)(=O)O [ATM, Aztreonam]
[3]; Aerobic
  Lowest FICI, rep 1: 0.31
  Lowest FICI, rep 2: 0.31
[3]; Anaerobic
  Lowest FICI, rep 1: 0.56

## C[C@@H]1[C@H](O)[C@@H](C)/C=C/C=C/C=C/C=C/C=C/C=C/C=C/[C@H](O[C@@H]2O[C@H](C)[C@@H](O)[C@H](N)[C@@H]2O)C[C@@H]2O[C@](O)(C[C@@H](O)C[C@@H](O)[C@H](O)CC[C@@H](O)C[C@@H](O)CC(=O)O[C@H]1C)C[C@H](O)[C@H]2C(=O)O [Amphotericin B, amphotericin B]
[4]
  Interaction (at 24 hours): Additive
  Lowest FICI (at 24 hours): 0.625
  Interaction (at 48 hours): Additive
  Lowest FICI (at 48 hours): 0.5625

## CC(C)(O/N=C(\C(=O)N[C@@H]1C(=O)N2C(C(=O)[O-])=C(C[n+]3ccccc3)CS[C@H]12)c1csc(N)n1)C(=O)O [CAZ, ceftazidime]
[3]; Aerobic
  Lowest FICI, rep 1: 0.38
  Lowest FICI, rep 2: 0.31
[3]; Anaerobic
  Lowest FICI, rep 1: 0.50

## O=C(O)c1cn(C2CC2)c2cc(N3CCNCC3)c(F)cc2c1=O [CIP, Ciprofloxacin]
[3]; Aerobic
  Lowest FICI, rep 1: 0.56
  Lowest FICI, rep 2: 0.31
  Lowest FICI, rep 3: 0.56
[3]; Anaerobic
  Lowest FICI, rep 1: 0.56

## CC[C@H]1OC(=O)[C@H](C)[C@@H](O[C@H]2C[C@@](C)(OC)[C@@H](O)[C@H](C)O2)[C@H](C)[C@@H](O[C@@H]2O[C@H](C)C[C@H](N(C)C)[C@H]2O)[C@](C)(OC)C[C@@H](C)C(=O)[C@H](C)[C@@H](O)[C@]1(C)O [CLR, Clarithromycin]
M. chimaera N0124
  Lowest FICI, rep 1: 1.00
M. massiliense N0130
  Lowest FICI, rep 1: 0.56
  Lowest FICI, rep 2: 1.00

## O=C([O-])CC(O)(CC(=O)[O-])C(=O)[O-].[Ga+3] [GaCi, Gallium citrate]
S. aureus strain N0040
  Interaction of MD3 with the antibiotic (FICI classification): synergistic (FICI values of ≤0.5 are considered synergistic)
S. aureus strain N0040; combined with MD3
  Lowest FICI, rep 1: 0.25
  Lowest FICI, rep 2: 0.19
[3]; Aerobic
  Lowest FICI, rep 1: 0.38
  Lowest FICI, rep 2: 0.38
  Lowest FICI, rep 3: 0.25
[1]
  Lowest FICI, rep 1: 0.56
[2]
  Lowest FICI, rep 1: 0.56

## CCC(C)n1ncn(-c2ccc(N3CCN(c4ccc(OCC5COC(Cn6cncn6)(c6ccc(Cl)cc6Cl)O5)cc4)CC3)cc2)c1=O (stereo not shown) [Itraconazole, itraconazole]
[5]; [6]
  Lowest FICI (at 24 hours): 0.625
[5]; [7]
  Lowest FICI (at 48 hours): 0.5625

## C[C@@H](O)[C@H]1C(=O)N2C(C(=O)O)=C(S[C@@H]3CN[C@H](C(=O)N(C)C)C3)[C@H](C)[C@H]12 [MER, Meropenem]
[3]; Aerobic
  Lowest FICI, rep 1: 0.53
  Lowest FICI, rep 2: 0.56
[3]; Anaerobic
  Lowest FICI, rep 1: 0.56

## NC[C@H]1O[C@H](O[C@H]2[C@H](O)[C@@H](O[C@H]3O[C@H](CO)[C@@H](O)[C@H](N)[C@H]3O)[C@H](N)C[C@@H]2N)[C@H](N)C[C@@H]1O [TOB, Tobramycin]
P. aeruginosa biofilms
  Biofilm eradication (MBEC, 3-log reduction in biofilm-associated CFUs): only effective against aerobic biofilms
S. aureus strain N0040
  Interaction of MD3 with the antibiotic (FICI classification): indifferent (values of greater than 1 to 4 are indifferent)
S. aureus strain N0040; combined with MD3
  Lowest FICI, rep 1: 1.03
[3]; Aerobic
  Lowest FICI, rep 1: 0.56
  Lowest FICI, rep 2: 0.63
  Lowest FICI, rep 3: 0.56
[3]; Anaerobic
  Lowest FICI, rep 1: 0.56
Planktonic P. aeruginosa
  MIC: 3.12 µg/mL

## C[C@@H](c1ncncc1F)[C@](O)(Cn1cncn1)c1ccc(F)cc1F [Voriconazole, voriconazole]
[4]
  Interaction (at 24 hours): Additive
  Lowest FICI (at 24 hours): 0.375
  Interaction (at 48 hours): Additive
  Lowest FICI (at 48 hours): 0.5625
[4]; time point not separated
  Interaction of MD3 with the antifungal (summary): at least additive
[5]; [6]
  Interaction (at 24 hours): Additive
  Lowest FICI (at 24 hours): 0.625
[5]; [7]
  Interaction (at 48 hours): Additive
  Lowest FICI (at 48 hours): 0.313
[5]; time point not separated
  Interaction of MD3 with the antifungal (summary): at least additive

## Colistin [CST]
[3]; Aerobic
  Lowest FICI, rep 1: 0.56
  Lowest FICI, rep 2: 0.38
[3]; Anaerobic
  Lowest FICI, rep 1: 0.56

## Gentamicin
[3]; Aerobic
  Lowest FICI, rep 1: 1.06
[3]; aerobic conditions
  Interaction of MD3 with the antibiotic (FICI classification): indifferent (values of greater than 1 to 4 are indifferent)
